# pKd: −log10 of the molar value.
# Test system: Ribosomal RNA A-site
# Assay: Binding affinity for the 16S ribosomal RNA A-site of Escherichia coli
# Format: nucleic-acid assay
row,SMILES,pKd
1,COC(=O)Cn1c(C2CCNCC2)nc2cc(Cl)c(Cl)cc21,3.52
2,N[C@H]1CC[C@@H](c2nc3cc([N+](=O)[O-])ccc3[nH]2)C1,3.66
3,FC(F)(F)c1ccc2[nH]c(C3CCNCC3)nc2c1,3.55
4,O=[N+]([O-])c1ccc2[nH]c(C3CCCCC3)nc2c1,< 3.00
5,Cc1ccc(OC(=O)n2c(C3CCNCC3)nc3cc(Cl)c(Cl)cc32)cc1,< 3.00
6,Clc1cc2nc(C3CCNCC3)[nH]c2cc1Cl,3.76
7,CCCCn1c(C2CCNCC2)nc2cc(Cl)c(Cl)cc21,3.56
8,c1nc2nc(C3CCNCC3)nc-2c[nH]1,3.04
9,COC(=O)c1ccc(Cn2c(C3CCNCC3)nc3cc(Cl)c(Cl)cc32)cc1,3.65
10,COc1ccc2[nH]c(C3CCNCC3)nc2c1,3.23
11,O=[N+]([O-])c1ccc2[nH]c(-c3cccnc3)nc2c1,< 3.00
12,O=[N+]([O-])c1cc(C(F)(F)F)ccc1-n1c(C2CCNCC2)nc2cc(Cl)c(Cl)cc21,3.91
13,c1ccc2sc(C3CCNCC3)nc2c1,< 3.00
14,O=[N+]([O-])c1ccc(-n2c(C3CCNCC3)nc3cc(Cl)c(Cl)cc32)c([N+](=O)[O-])c1,3.61
15,c1c[nH]c2nc(C3CCNCC3)nc-2c1,3.27
16,Clc1cc2nc(C3CCNCC3)n(Cc3ccc(I)cc3)c2cc1Cl,3.70
17,Cc1ccc2[nH]c(C3CCNCC3)nc2c1,3.36
18,Clc1ccc2[nH]c(C3CCNCC3)nc2c1,3.29
19,Cc1cc2[nH]c(C3CCNCC3)nc2cc1Cl,3.42
20,FC(F)(F)c1ccc(Cn2c(C3CCNCC3)nc3cc(Cl)c(Cl)cc32)cc1,3.67
21,O=[N+]([O-])c1ccc(Cn2c(C3CCNCC3)nc3cc(Cl)c(Cl)cc32)cc1,3.62
22,Clc1cc2nc(C3CCNCC3)n(-c3ncccn3)c2cc1Cl,3.17
23,Clc1cc2nc(C3CCNCC3)n(Cc3cccnc3)c2cc1Cl,4.17
24,NC1CCCC(c2nc3cc([N+](=O)[O-])ccc3[nH]2)C1 (stereo not drawn),3.98

row,SMILES,pKd
1,Cn1c(C2CCNCC2)nc2cc(Cl)c(Cl)cc21,3.62
2,Fc1c(F)c(C(F)(F)F)c(F)c(F)c1Cn1c(C2CCNCC2)nc2cc(Cl)c(Cl)cc21,3.93
3,Clc1cc2nc(C3CCNCC3)n(Cc3ccncc3)c2cc1Cl,4.22
4,CN1CCC(c2nc3cc([N+](=O)[O-])ccc3[nH]2)CC1,< 3.00
5,c1ccc2[nH]c(C3CCNCC3)nc2c1,3.97
6,c1cc2nc(C3CCNCC3)nc-2c[nH]1,3.96
7,FC(F)(F)c1ccc(Cn2c(C3CCNCC3)nc3cc(Cl)c(Cl)cc32)c(C(F)(F)F)c1,3.80
8,Brc1ccc2[nH]c(C3CCNCC3)nc2c1,3.44
9,Fc1c(F)c(F)c(Cn2c(C3CCNCC3)nc3cc(Cl)c(Cl)cc32)c(F)c1F,3.63
10,Clc1cc2nc(C3CCNCC3)n(Cc3ccccc3Br)c2cc1Cl,3.23
11,Nc1ccc2[nH]c(C3CCNCC3)nc2c1,3.30
12,Clc1cc2nc(C3CCNCC3)n(Cc3cccc(I)c3)c2cc1Cl,3.39
13,"N[C@H]1C(O)O[C@H](CO)C(O)[C@@H]1O (single isomer, unassigned) [GLUCOSAMINE]",~3.00
14,Clc1ccc2scc(Cn3c(C4CCNCC4)nc4cc(Cl)c(Cl)cc43)c2c1,< 3.00
15,Cc1ccc(S(=O)(=O)n2c(C3CCNCC3)nc3cc(Cl)c(Cl)cc32)cc1,< 3.00
16,O=[N+]([O-])c1ccc2[nH]c(C3CCNCC3)nc2c1,3.51
17,CC(C)(C)c1ccc(Cn2c(C3CCNCC3)nc3cc(Cl)c(Cl)cc32)cc1,3.24
18,Clc1cc2nc(C3CCNCC3)n(Cc3ccc(Br)cc3)c2cc1Cl,3.36
19,N[C@H]1CC[C@@H](c2nc3cc([N+](=O)[O-])ccc3[nH]2)CC1,3.91
20,Nc1ccc(-c2nc3cc([N+](=O)[O-])ccc3[nH]2)cc1,< 3.00
21,Nc1cccc(-c2nc3cc([N+](=O)[O-])ccc3[nH]2)c1,< 3.00
22,CC(=O)N1CCC(c2nc3cc([N+](=O)[O-])ccc3[nH]2)CC1,< 3.00
23,O=C(O)Cn1c(C2CCNCC2)nc2cc(Cl)c(Cl)cc21,< 3.00
24,O=[N+]([O-])c1ccc2[nH]c(-c3ccncc3)nc2c1,< 3.00

# — ChEMBL document CHEMBL1147429, “Synthesis and evaluation of novel bacterial rRNA-binding benzimidazoles by mass spectrometry” (Bioorg Med Chem Lett, 2004)
